Counter-ions that a name gives are not always drawn.
What was measured:
[1] = system: ten diverse human cancer cells lines and murine non-tumorigenic cell line (Balb/3T3); assay: Antiproliferative screen, whole cell line panel (statements in words); type: cell-based; conditions: SRB, across cell lines
From the text: (§1) Ten different human cancer cell lines (including drug-resistant sublines) and one non-tumorigenic murine fibroblasts cell line were used to determine antiproliferative activity of the tested compounds. The MDA-MB-231 (breast adenocarcinoma), UM-UC-3 (urinary bladder transitional cell carcinoma), LoVo (colorectal adenocarcinoma), LoVo^Dx (colorectal adenocarcinoma, doxorubicin-resistant) and Balb/3T3 (non-tumorigenic murine fibroblasts) were purchased from the American Type Culture Collection (ATCC; Rockville, USA). The MCF-7 (breast adenocarcinoma) and A549 (lung carcinoma) were purchased from European Collection of Authenticated Cell Cultures (ECACC; Porton Down, UK). The UM-UC-3^CDDP, UM-UC-3^GEM, UM-UC-3^VBL, and UM-UC-3^CDDP/GEM cell lines were established at Hirszfeld Institute of Immunology and Experimental Therapy of the Polish Academy of Sciences (HIIET, PAS, Wroclaw, Poland) by the continuous exposure to the increasing concentrations of corresponding cytostatics.
(§2) The Balb/3T3 and UM-UC-3 were cultured in Dulbecco’s Modified Eagle Medium (DMEM; Life Technologies, UK) supplemented with 10% (v/v) fetal bovine serum (FBS; GE Healthcare HyClone, Logan, USA) and 2 mM L-glutamine (Sigma-Aldrich, Poznań, Poland). The UM-UC-3^CDDP, UM-UC-3^GEM, UM-UC-^3VBL, and UM-UC-3^CDDP/GEM culture media were additionally supplemented with appropriate cytostatics: 2.5 µg/mL cisplatin (Accord, Warsaw, Poland) for UM-UC-3^CDDP, 500 nM gemcitabine (Sigma-Aldrich, Poznań, Poland) for UM-UC-3^GEM, 5 nM vinblastine (Sigma-Aldrich, Poznań, Poland) for UM-UC-3VBL, 2.5 µg/mL cisplatin and 500 nM gemcitabine for UM-UC-3^CDDP/GEM. The LoVo cell line was cultured in F-12K Nutrient Mixture (F-12K; Corning, Corning, USA), supplemented with 10% (v/v) FBS. LoVo^Dx culture medium was additionally supplemented with doxorubicin 100 ng/mL (Accord, Warsaw, Poland). The MCF-7 cell line was cultured in Eagle’s medium (HIIET, PAS, Wroclaw, Poland), supplemented with 10% (v/v) FBS (Sigma-Aldrich, Poznań, Poland), 2 mM L-glutamine, MEM non-essential amino acid solution 1% (v/v) (Sigma-Aldrich, Poznań, Poland), insulin 8 µg/mL (Sigma-Aldrich, Poznań, Poland). The MDA-MB-231 cell line was cultured in RPMI 1640 (HIIET, PAS, Wroclaw, Poland), supplemented with 10% (v/v) FBS (Sigma-Aldrich, Poznań, Poland) and 2 mM L-glutamine. The A 549 cell line was cultured in OptiMEM (HIIET, PAS, Wroclaw, Poland), supplemented with 5% (v/v) FBS (GE Healthcare HyClone, Logan, USA) and 2 mM L-glutamine. All culture media were supplemented with antibiotics—100 μg/mL streptomycin (Polfa Tarchomin, Warsaw, Poland) and 100 U/mL penicillin (Sigma-Aldrich, Poznań, Poland).
(§3) All cell lines were cultured in a humidified atmosphere at 37 °C with 5% (v/v) CO2 and passaged twice a week using EDTA-Trypsin solution (pH 8; HIIET, Wroclaw, Poland) as a detachment agent.
(§4) All compounds, for antiproliferative activity assessment, were stored at […] as 50 mM solutions in dimethyl sulfoxide (DMSO; Avantor Performance Materials, Gliwice, Poland).
(§5) The cells were seeded on 384-well plates (Greiner Bio One, Kremsmünster, Austria) at 1 × 10^3 cells/well density for A 549, UM-UC-3, UM-UC-3^CDDP, UM-UC-3^GEM, UM-UC-3^CVBL and UM-UC-3^CDDP/GEM cell lines. Other cell lines were seeded at 2 × 10^3 cells/well. After overnight incubation, compounds were applied at eight concentrations (ranging from 100 µM to 0.03 µM). After 72 h incubation, the sulforhodamine B (SRB) assay based on Skehan et al. was carried out with slight modifications. In brief, 50 µL of the medium was replaced with 30 µL/well of 25% (w/v) trichloroacetic acid (Avantor Performance Materials, Gliwice, Poland). After 1 h incubation at room temperature, plates were washed three times with tap water, and 20 µL of 0.1% (w/v) solution of sulforhodamine B (Sigma-Aldrich, Poznan, Poland) in 1% (v/v) acetic acid (Avantor Performance Materials, Gliwice, Poland) was added to each well. […]

[2] = system: Balb/3T3 (non-tumorigenic murine fibroblasts); assay: Antiproliferative activity, sulforhodamine B assay; type: cell-based; conditions: Mus musculus, BALB/3T3; SRB, 72 h incubation; non-tumorigenic line; read-out: IC50 ± SD, Balb/3T3
From the text: as §1, §2, §3, §4, §5

[3] = system: LoVo^DX (colorectal adenocarcinoma, doxorubicin-resistant); assay: Antiproliferative activity, sulforhodamine B assay; type: cell-based, human; conditions: Homo sapiens, LoVo/DX, SRB, 72 h incubation, read-out: IC50 ± SD, LoVo^DX
From the text: as §1, §2, §3, §4, §5

[4] = system: LoVo (colorectal adenocarcinoma); assay: Antiproliferative activity, sulforhodamine B assay; type: cell-based, human; conditions: Homo sapiens, LoVo; SRB, 72 h incubation; read-out: IC50 ± SD, LoVo
From the text: as §1, §2, §3, §4, §5

A549 (lung carcinoma) = assay: Antiproliferative activity, sulforhodamine B assay; type: cell-based, human; conditions: Homo sapiens, A549; SRB, 72 h incubation; read-out: IC50 ± SD, A-549
From the text: as §1, §2, §3, §4, §5

[5] = system: MDA-MB-231 (breast adenocarcinoma); assay: Antiproliferative activity, sulforhodamine B assay; type: cell-based, human; conditions: Homo sapiens, MDA-MB-231; SRB, 72 h incubation; read-out: IC50 ± SD, MDA-MB-231
From the text: as §1, §2, §3, §4, §5

[6] = system: MCF-7 (breast adenocarcinoma); assay: Antiproliferative activity, sulforhodamine B assay; type: cell-based, human; conditions: Homo sapiens, MCF7; SRB, 72 h incubation; read-out: IC50 ± SD, MCF-7
From the text: as §1, §2, §3, §4, §5

[7] = Potentiometric titration and spectroscopy, stability constants of Cu(II)-complexes; type: physicochemical; conditions: for Cu(II) complexing ability (in words): 10a versus 9a below pH 5, 9a versus Gly(Z)Phe, nL:nCu(II) = 1:1
Description: (§6) The pH-metric measurements were performed on Metrohm 905 Titrando system equipped with combined Biotrop® electrode. The titrant was 0.1 M KOH (Merck, Germany) freed of CO2 by bubbling Ar gas for 3 h. The electrode calibration was performed before each titration. The volume of all the samples was 1.5 mL and the measurements were carried out at a range of pH of 2.5–11.0 in thermostated vessels at 298 K in an inert atmosphere of Ar gas. The ligands 9a and 10a were diluted in hydrochloric acid (pH = 2.5), prepared from 37% HCl (Sigma-Aldrich, Poland). Their concentration was set up at a range of 1.0–2.0 × 10^−3 M and the ionic strength of 0.1 M was achieved by the addition of KCl (Sigma-Aldrich, Poland). The ligand-metal ion systems were prepared by addition of CuCl2 (Sigma-Aldrich, Poland). stock solutions to reach final ligand to metal ratio (nL: nCu^2+) being 2:1 or 1:1.
(§7) The protonation (βi = [HiL]/[H^+]^i[L]), stability constants (βpqr = [MpHqLr]/[M]^p[H]^q[L]^r), and stoichiometry of complexes were calculated using the HYPERQUAD program. The distribution species plots were made by HySS program. The standard deviations were computed for all the constants and indicated the presence of only random errors, which was a good evidence of the presence of each species in the equilibrium.
The UV-Vis absorption measurements were recorded on Varian Carry 50 Bio spectrophotometer. All spectra were collected in a quartz cuvette with 1 cm path length at 298 K. The spectral range was 300–800 nm with resolution 0.1 nm. The molar extinction coefficients (ε [M^−1cm^−1]) were calculated for each spectrum at a wavelength of maximum absorption.
The Circular Dichroism spectra (CD) and Magnetic Circular Dichroism (MCD) were measured on a JASCO J 600 spectropolarimeter in a range of 230–800 nm with 0.1 nm resolution. The optical length of the quartz cuvettes was 10 mm. The molar circular dichroism coefficient (Δε [M^−1cm^−1]) was calculated for each spectrum.
The Electron Paramagnetic Resonance (EPR) spectra were recorded on a Brucker ESP 300E spectrometer at X-band frequency (9.5 GHz) at 77 K obtained by the use of liquid nitrogen. The procedure of sample preparation for spectroscopic measurements was the same as in potentiometric titration. The EPR samples were protected by adding 30% of ethylene glycol (Sigma-Aldrich, Poland). The pH of the samples was determined by adding a small quantity of a concentrated solution of KOH (Merck, Germany) to achieve the desired value and controlled by Mettler Toledo pH-meter equipped with combined electrode InLab®Micro. The simulation of the EPR spectrum was performed by the Hyperfine Spectrum program written by W.R. Hagen.

[8] = Potentiometric titration, protonation constants of free ligands; type: physicochemical; conditions: 298 K, ionic strength 0.1 M KCl; for protonation constant logβ, H2L / protonation constant logβ, H3L / protonation constant logβ, HL: ± SD
Description: as §6, §7

[9] = 298 K, ionic strength 0.1 M KCl
[10] = 298 K, ionic strength 0.1 M KCl, ± SD

Row | IC50 (A549 (lung carcinoma)) [µM] | IC50 [5] [µM] | IC50 [6] [µM] | logK, Cu2L2H [7, 9] | logK, CuL [7, 9] | logK, CuL2H [7, 9] | logK, CuLH2 [7, 9] | stability constant logβ, Cu2L2H [7, 10] | stability constant logβ, Cu2L2H-1 [7, 10] | stability constant logβ, CuL [7, 10] | stability constant logβ, CuL2 [7, 10] | stability constant logβ, CuL2H [7, 10] | stability constant logβ, CuLH2 [7, 10] | stability constant logβ, CuLH-1 [7, 10] | protonation constant logK, H3L [8] | protonation constant logK, HL [8] | protonation constant logβ, H2L [8] | protonation constant logβ, H3L [8] | SMILES | antiproliferative activity (in words) [1] | Cu(II) complexing ability (in words) [7] | also measured
1 | 33.4 ± 6.4 | 56 ± 7.1 | > 100 |  |  |  |  |  |  |  |  |  |  |  |  |  |  |  | COC(=O)/C(=C/Sc1nc2ccccc2s1)NC(=O)CN [Compound 9d, HCl Gly-ΔCys(S-benzothiazole)-OMe] |  |  | 
2 |  |  |  | 14.45 | 10.42 | 8.73 | 9.34 | 36.61 ± 0.03 | 22.16 ± 0.06 | 14.18 ± 0.01 | 20.06 ± 0.04 | 28.79 ± 0.04 | 23.52 ± 0.03 | 3.76 ± 0.04 | 7.26 | 10.09 | 18.05 ± 0.01 | 25.31 ± 0.01 | COC(=O)/C(=C/Sc1nc[nH]n1)NC(=O)CN [Compound 9a, HCl Gly-ΔCys(S-triazole)-OMe] |  | significantly more effective in Cu(II) coordination | logK, CuL2 [7, 9]: 11.35; logK, CuL2H2 [7, 9]: 7.67; stability constant logβ, CuL2H2 [7, 10]: 36.46 ± 0.04; stability constant logβ, CuL2H-1 [7, 10]: 8.71 ± 0.07; corrected stability constant (logβ = logβCuLH2 − logβH2L) ([7]; CuH2L complex, equimolar conditions): 5.47; logβ* = logβCuL − logKHL ([7]; CuL species, independent of logKtriazole): 4.09; protonation constant logβ, HL [8]: 10.09 ± 0.01
3 |  |  |  | 14.59 | 10.61 | 8.45 | 8.83 | 37.54 ± 0.06 | 22.95 ± 0.06 | 15.00 ± 0.01 | 20.37 ± 0.05 | 28.82 ± 0.11 | 23.83 ± 0.03 | 4.39 ± 0.03 | 6.85 | 10.42 | 18.53 ± 0.02 | 25.38 ± 0.02 | COC(=O)/C(=C/Sc1nc[nH]n1)NC(=O)[C@@H](N)Cc1ccccc1 [Compound 10a, HCl Phe-ΔCys(S-triazole)-OMe] |  | significantly more effective binder of Cu(II) | protonation constant logβ, HL [8]: 10.42 ± 0.01

Second part, the molecule before the results:

Row | SMILES | IC50 (A549 (lung carcinoma)) [µM] | IC50 [5] [µM] | IC50 [6] [µM] | logK, Cu2L2H [7, 9] | logK, CuL [7, 9] | logK, CuL2H [7, 9] | logK, CuLH2 [7, 9] | stability constant logβ, Cu2L2H [7, 10] | stability constant logβ, Cu2L2H-1 [7, 10] | stability constant logβ, CuL [7, 10] | stability constant logβ, CuL2 [7, 10] | stability constant logβ, CuL2H [7, 10] | stability constant logβ, CuLH2 [7, 10] | stability constant logβ, CuLH-1 [7, 10] | protonation constant logK, H3L [8] | protonation constant logK, HL [8] | protonation constant logβ, H2L [8] | protonation constant logβ, H3L [8] | antiproliferative activity (in words) [1] | Cu(II) complexing ability (in words) [7] | also measured
4 | COC(=O)/C(=C/Sc1nc[nH]n1)NC(=O)CNC(=O)OC(C)(C)C [Compound 6a, Boc-Gly-ΔCys(S-triazole)-OMe] |  |  |  |  |  |  |  |  |  |  |  |  |  |  |  |  |  |  | markedly lower, if any, activity |  | 
5 | COC(=O)/C(=C/Sc1nc2c(N)ncnc2[nH]1)NC(=O)CNC(=O)OC(C)(C)C [Compound 6e, Boc-Gly-ΔCys(S-adenine)-OMe] |  |  |  |  |  |  |  |  |  |  |  |  |  |  |  |  |  |  | markedly lower, if any, activity |  | 
6 | COC(=O)/C(=C/Sc1nc2c(N)ncnc2[nH]1)NC(=O)[C@H](Cc1ccccc1)NC(=O)OC(C)(C)C [Compound 7e, Boc-Phe-ΔCys(S-adenine)-OMe] | > 100 | 74.5 ± 7.7 | 101 ± 11.3 |  |  |  |  |  |  |  |  |  |  |  |  |  |  |  | markedly lower, if any, activity |  | IC50 [2]: > 100 µM; IC50 [3]: > 100 µM; IC50 [4]: 81.7 ± 12.4 µM

— article PMC7927096, “Dipeptides of S-Substituted Dehydrocysteine as Artzyme Building Blocks: Synthesis, Complexing Abilities and Antiproliferative Properties” (International Journal of Molecular Sciences, 2021)
